Results reported in patent publication US12090164B2, “Genotype-agnostic rescue of cystic fibrosis with small molecule bicarbonate channels” (The Board of Trustees of the University of Illinois, priority 2017, dated 2024).
Entries after “also recorded” stand apart in the source; their conditions may differ.

Legend:
[1] = test system: CuFi-1 (ΔF508/ΔF508) epithelia; assay: Basolateral to apical H14CO3- transport; assay type: cell-based, human
Protocol: (§1) Small diameter NuLi and CuFi cultured epithelia were used for this experiment (0.33 cm^2). ^14C-labeled sodium HCO3^− was obtained as a sterile 35.7 mM aqueous solution pH 9.5 (MP Biomedicals 0117441H). All experiments were run less than 2 months post seeding. Fresh USG media was added to the basolateral side prior to experimentation. The apical membrane was treated with 20 μL of vehicle, AmB, or ivacaftor/forskolin as a suspension in perfluorocarbon-72 (Sigma Aldrich), and the cultured epithelia were incubated for 48 hours, 7 days, 14 days, or 28 days at 37° C. in a 5% C02 atmosphere. After the end of the treatment period, 5 μL of a 1.4 mM H^14CO3^− stock solution in USG media was added to the basolateral media. The cultured epithelia were then incubated at 37° C. for 10 minutes. After 10 minutes, the apical membrane of the cultured epithelia was immediately washed with 200 μL of PBS. The ASL wash and a 200 μL aliquot of the basolateral media were diluted in scintillation cocktail and analyzed via liquid scintillation counting (23).

[2] = test system: CuFi-4 (G551D/ΔF508) epithelia; assay: Basolateral to apical H14CO3- transport; assay type: cell-based, human; details: AmB 2 μM, ivacaftor/forskolin 10 μM
Protocol: as §1

C[C@@H]1[C@H](O)[C@@H](C)/C=C/C=C/C=C/C=C/C=C/C=C/C=C/[C@H](O[C@@H]2O[C@H](C)[C@@H](O)[C@H](N)[C@@H]2O)C[C@@H]2O[C@](O)(C[C@@H](O)C[C@@H](O)[C@H](O)CC[C@@H](O)C[C@@H](O)CC(=O)O[C@H]1C)C[C@H](O)[C@H]2C(=O)O [AmB, amphotericin B]
time for which increase in H^14CO3^− secretion is sustained ([1]; AmB 2 μM left on epithelia): at least 7 days | basolateral to apical H^14CO3^− transport, apical addition ([1]; over 10 minutes, AmB or C35deOAmB 2 μM, ivacaftor/forskolin 10 μM): restored normal bicarbonate transport; also recorded: increased the rate of ^14C bicarbonate to match that observed in NuLi epithelia; also recorded: effective in both genotypes; also recorded: increased both | H^14CO3^− transepithelial transport [2]: increase H^14CO3-transepithelial transport; also recorded: effective in both genotypes; also recorded: the same increase in rate of bicarbonate efflux; also recorded: increased ASL pH and H^14CO3^− secretion
